Data from PMC11440508, “Dually Labeled Neurotensin NTS1R Ligands for Probing Radiochemical and Fluorescence-Based Binding Assays” (Journal of Medicinal Chemistry, 2024).

How the values were obtained:
[1] = molecular target: NTS1R (Homo sapiens, UniProt P30989); experiment: High-content imaging (HCI) association and dissociation kinetics, adherent CHO-hNTS1R cells; format: binding; conditions: for koff: 23 °C, read-out: koff [min^–1] (converted); for kon: calculated from kobs, koff and ligand concentration, read-out: kon [min^–1 nM^–1] (converted)
NTS1R, sequence (P30989 whole entry): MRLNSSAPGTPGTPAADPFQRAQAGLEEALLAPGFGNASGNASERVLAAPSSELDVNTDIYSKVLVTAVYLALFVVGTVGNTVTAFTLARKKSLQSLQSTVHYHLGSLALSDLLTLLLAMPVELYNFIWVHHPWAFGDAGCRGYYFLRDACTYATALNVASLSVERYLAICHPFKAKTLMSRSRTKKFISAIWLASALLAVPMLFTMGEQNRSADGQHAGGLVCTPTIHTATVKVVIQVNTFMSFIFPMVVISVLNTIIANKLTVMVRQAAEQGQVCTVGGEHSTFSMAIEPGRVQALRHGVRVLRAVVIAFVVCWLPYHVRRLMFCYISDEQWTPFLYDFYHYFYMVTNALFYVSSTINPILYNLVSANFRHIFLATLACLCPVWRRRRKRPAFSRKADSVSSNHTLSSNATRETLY
Experimental: CHO-hNTS1R or HT-29 cells were seeded one day prior to the experiment into the inner 60 wells of a black clear-bottom 96-well plate (Greiner 655090, Greiner Bio-One) at a concentration of 25,000 cells/well and 35,000 cells/well, respectively. On the day of the assay, the medium was removed by suction and the cells were washed with DPBS1 (50 μL). After this step, DPBS1 (180 or 200 μL) containing the nuclear dye Hoechst H33342 (2 μg/mL) was added. This solution also contained the fluorescent ligand (kinetic studies, competition binding experiments), or the fluorescent ligand was added separately (saturation binding experiments). In the case of competition binding experiments, the nonlabeled receptor ligands were also added separately (details given below). All samples were incubated at 23 ± 1 °C in the dark under gentle shaking (incubation times are specified below). The final volume per well was 200 μL. Shortly before subjecting the plate to the plate reader for image acquisition, the liquid was removed by suction and DPBS1 (100 μL) was added. Images were acquired using an IX Micro plate reader (Molecular Devices, Sunnyvale, CA) using a 20× Plan Fluor ELWD objective, a xenon lamp light source and DAPI and TRITC excitation/emission filter cubes for imaging nuclear and fluorescent ligand staining, respectively. […] Two sites/well were measured throughout. Images were analyzed by granularity analysis (2–3 μm diameter granules; MetaXpress 5.3, Molecular Devices, San Diego, CA) and the integrated intensity (pixel intensity × granule area) per cell was used as the raw measurement of fluorescent ligand binding. […]
After the initial washing step, 200 μL of DPBS1 containing the fluorescent ligand 13 or 18 (2.5 nM) and DAPI were added to determine total binding. […] The samples of the different time points were prepared in reversed order (longest incubation time first, shortest incubation time last) so that the cells of all samples could be washed and measured approximately at the same time (note: the measurement time for 60 wells was <5 min). […] Specific binding data, obtained by subtracting triplicate mean values of unspecific binding from triplicate mean values of total binding, were plotted against the time and analyzed by a three-parameter equation describing an exponential rise to a maximum (one-phase association, Y0 constrained to zero, GraphPad Prism 5) to yield the observed association rate constant kobs. […]
After initial washing of the cells, 200 μL of DPBS1 containing the fluorescent ligand 13 or 18 (2.5 nM) and DAPI were added to the wells (determination of total binding). […] The plate was directly subjected to the plate reader (no washing step). […]

[2] = Stability in human plasma/PBS 1:2 v/v; format: in vitro ADME; conditions: for % intact compound in plasma: 37 °C; for % intact compound in plasma / remaining at 24 h, 80 μM: 24 h
Experimental: The proteolytic stabilities of 13 and 18 were investigated in human blood plasma/PBS (136.9 mM NaCl, 2.68 mM KCl, 5.62 mM Na2HPO4, 1.09 mM NaH2PO4, and 1.47 mM KH2PO4, pH 7.4) 1:2 v/v according to a described procedure[38] with the following modifications: 5 mM stock solutions in EtOH/10 mM aqueous HCl 1:1 v/v were used for the addition of the peptides to plasma/PBS 1:2 v/v. As the RP-HPLC purity of 1-methyl-D-Trp, used as internal standard (IS), was <95%, the compound was purified by preparative HPLC to give a purity of >99%. The concentration of the peptides in plasma/PBS 1:2 v/v was 40 μM (recovery determination) or 80 μM (stability tests). Samples were analyzed using the same RP-HPLC system and conditions as described under Analytical HPLC with the following gradient: 0–6 min: acetonitrile/0.04% aqueous TFA 10:90–21:79, 6–12 min: 21:79–40:60, 12–13 min: 40:60–95:5, 13–16 min: 95:5 (isocratic). Data analysis was based on UV detection at 220 nm. Reference samples, representing 100% recovery, were prepared in quadruplicate. Recovery ratios were obtained by dividing the recovery of the peptide by the recovery of IS for each individual sample (n = 4). The obtained recoveries and the recovery ratios are summarized in Table S2, Supporting Information.

[3] = human blood plasma/PBS 1:2 v/v, pH 7.4, 37 °C, read-out: % intact compound in plasma

| SMILES | koff [1] | kon [1] | % intact compound in plasma [2] | remaining at 2 h, 80 μM [2, 3] | remaining at 6 h, 80 μM [2, 3] | remaining at 24 h, 80 μM [2, 3] | remaining at 48 h, 80 μM [2, 3] | remaining at 0.5 h, 80 μM ([2]; human blood plasma/PBS 1:2 v/v, pH 7.4, 37 °C, 30 min, read-out: % intact compound in plasma) |
| --- | --- | --- | --- | --- | --- | --- | --- | --- |
| CCC(=O)NCCCCNC(=O)NC(=N)NCCC[C@H](NC(=O)[C@@H]1CCCN1C(=O)[C@@H](NC(=O)CCc1cn(CCCNC(=O)CCC#Cc2ccc3c(c2)C(C)(C)C2=C4C=C5C6=[N+](CCC5OC4CCN23)c2ccc(S(=O)(=O)[O-])cc2C6(C)C)nn1)C1CCNCC1)C(=O)N[C@@H](CCCNC(=N)N)C(=O)N1CCC[C@H]1C(=O)N[C@H](C(=O)N[C@H](C(=O)N[C@@H](CC(C)C)C(=O)O)[C@@H](C)CC)C(C)(C)c1ccc(O)cc1 (stereo partly drawn) [Compound 18, N^α-(3-(N-(1-(8-Sulfonato-5,5,27,27-tetramethyl-16-oxa-20-aza-12-azoniaheptacyclo[15.11.0.03,15.04,12.06,11.020,28.021,26]octacosa-1(28),2,4(12),6(11),7,9,21(26),22,24-nonaen-24-yl)-5-oxopentyn-5-yl)-1-aminoprop-3-yl-1H-1,2,3-triazol-4-yl)propanoyl)-2-(piperidin-4-yl)-Gly-Pro-N^ω-[(4-(N-propanoyl)aminobutyl)aminocarbonyl]Arg-Arg-Pro-β,β-dimethyl-L-Tyr-Ile-Leu Tris(hydrotrifluoroacetate)] | 0.00085 s⁻¹ | 135000 M⁻¹ s⁻¹ | > 50% | 95 ± 6% | 90 ± 6% | 82 ± 4% | 52 ± 4% |  |
| CCC(=O)NCCCCNC(=O)N=C(N)NCCC[C@H](NC(=O)[C@@H]1CCCN1C(=O)[C@@H](NC(=O)CCc1cn(CCCNC(=O)c2ccc(-c3c4ccc(=[N+](C)C)cc-4oc4cc(N(C)C)ccc34)c(C(=O)[O-])c2)nn1)C1CCNCC1)C(=O)N[C@@H](CCCNC(=N)N)C(=O)N1CCC[C@H]1C(=O)N[C@@H](Cc1ccc(O)cc1)C(=O)N[C@H](C(=O)N[C@@H](CC(C)C)C(=O)O)[C@@H](C)CC [Compound 13, N^α-(3-(1-N-((1-Carboxylato-2-(6-(dimethylamino)-3-(dimethyliminio)-3H-xanthen-9-yl)phen-5-yl)1-oxomethyl)aminoprop-3-yl-1H-1,2,3-triazol-4-yl)propanoyl)-2-(piperidin-4-yl)-Gly-Pro-N^ω-[(4-(N-propanoyl)aminobutyl)aminocarbonyl]Arg-Arg-Pro-Tyr-Ile-Leu Tris(hydrotrifluoroacetate)] | 0.000733 s⁻¹ | 267000 M⁻¹ s⁻¹ | > 50% | > 99% | > 99% | 86 ± 4% | 58 ± 5% | > 99% |
